# Results: ChEMBL document CHEMBL3044945, “Synthesis of 1,3,5-trisubstituted pyrazoline nucleus containing compounds and screening for antimicrobial activity” (2012)
# What was measured:
# Type in all cases: functional
# [1] = test system: Aspergillus niger; experiment: Antifungal activity against Aspergillus niger MTCC 2546 at 500 ug/ml after 48 hr by cup-plate method; conditions: MTCC 2546, 48 h, read-out: DIZ
# [2] = test system: Penicillium chrysogenum; experiment: Antifungal activity against Penicillium chrysogenum MTCC 161 at 1000 ug/ml after 48 hr by cup-plate method; conditions: MTCC 161, 48 h, read-out: DIZ
# [3] = test system: Aspergillus niger; experiment: Antifungal activity against Aspergillus niger MTCC 2546 at 1250 ug/ml after 48 hr by cup-plate method; conditions: MTCC 2546, 48 h, read-out: DIZ
# [4] = test system: Pseudomonas fluorescens; experiment: Antibacterial activity against Pseudomonas fluorescens MTCC 2421 at 250 ug/ml after 48 hr by cup-plate method; conditions: MTCC 2421, 48 h, read-out: DIZ
# [5] = test system: Escherichia coli; experiment: Antibacterial activity against Escherichia coli MTCC 1573 after 24 to 48 hr by tube dilution method
# [6] = test system: Escherichia coli; experiment: Antibacterial activity against Escherichia coli MTCC 1573 at 1250 ug/ml after 48 hr by cup-plate method; conditions: MTCC 1573, 48 h, read-out: DIZ
# [7] = test system: Micrococcus luteus; experiment: Antibacterial activity against Micrococcus luteus MTCC 1538 at 750 ug/ml after 48 hr by cup-plate method; conditions: MTCC 1538, 48 h, read-out: DIZ
# [8] = test system: Pseudomonas aeruginosa; experiment: Antibacterial activity against Pseudomonas aeruginosa MTCC 424 after 24 to 48 hr by tube dilution method
# [9] = test system: Staphylococcus aureus; experiment: Antibacterial activity against Staphylococcus aureus MTCC 1430 at 750 ug/ml after 48 hr by cup-plate method; conditions: MTCC 1430, 48 h, read-out: DIZ
# [10] = test system: Aspergillus niger; experiment: Antifungal activity against Aspergillus niger MTCC 2546 after 24 to 48 hr by tube dilution method
# [11] = test system: Pseudomonas fluorescens; experiment: Antibacterial activity against Pseudomonas fluorescens MTCC 2421 after 24 to 48 hr by tube dilution method
# [12] = test system: Staphylococcus aureus; experiment: Antibacterial activity against Staphylococcus aureus MTCC 1430 at 500 ug/ml after 48 hr by cup-plate method; conditions: MTCC 1430, 48 h, read-out: DIZ
# [13] = test system: Aspergillus niger; experiment: Antifungal activity against Aspergillus niger MTCC 2546 at 250 ug/ml after 48 hr by cup-plate method; conditions: MTCC 2546, 48 h, read-out: DIZ
# [14] = test system: Pseudomonas aeruginosa; experiment: Antibacterial activity against Pseudomonas aeruginosa MTCC 424 at 500 ug/ml after 48 hr by cup-plate method; conditions: MTCC 424, 48 h, read-out: DIZ
# [15] = test system: Penicillium chrysogenum; experiment: Antifungal activity against Penicillium chrysogenum MTCC 161 at 250 ug/ml after 48 hr by cup-plate method; conditions: MTCC 161, 48 h, read-out: DIZ
# [16] = test system: Pseudomonas aeruginosa; experiment: Antibacterial activity against Pseudomonas aeruginosa MTCC 424 at 750 ug/ml after 48 hr by cup-plate method; conditions: MTCC 424, 48 h, read-out: DIZ
# [17] = test system: Pseudomonas aeruginosa; experiment: Antibacterial activity against Pseudomonas aeruginosa MTCC 424 at 1000 ug/ml after 48 hr by cup-plate method; conditions: MTCC 424, 48 h, read-out: DIZ
# [18] = test system: Penicillium chrysogenum; experiment: Antifungal activity against Penicillium chrysogenum MTCC 161 at 100 ug/ml after 48 hr by cup-plate method; conditions: MTCC 161, 48 h, read-out: DIZ
# [19] = test system: Penicillium chrysogenum; experiment: Antifungal activity against Penicillium chrysogenum MTCC 161 at 500 ug/ml after 48 hr by cup-plate method; conditions: MTCC 161, 48 h, read-out: DIZ
# [20] = test system: Pseudomonas fluorescens; experiment: Antibacterial activity against Pseudomonas fluorescens MTCC 2421 at 1250 ug/ml after 48 hr by cup-plate method; conditions: MTCC 2421, 48 h, read-out: DIZ
# [21] = test system: Aspergillus niger; experiment: Antifungal activity against Aspergillus niger MTCC 2546 at 1000 ug/ml after 48 hr by cup-plate method; conditions: MTCC 2546, 48 h, read-out: DIZ
# [22] = test system: Staphylococcus aureus; experiment: Antibacterial activity against Staphylococcus aureus MTCC 1430 after 24 to 48 hr by tube dilution method
# [23] = test system: Pseudomonas fluorescens; experiment: Antibacterial activity against Pseudomonas fluorescens MTCC 2421 at 500 ug/ml after 48 hr by cup-plate method; conditions: MTCC 2421, 48 h, read-out: DIZ
# [24] = test system: Staphylococcus aureus; experiment: Antibacterial activity against Staphylococcus aureus MTCC 1430 at 250 ug/ml after 48 hr by cup-plate method; conditions: MTCC 1430, 48 h, read-out: DIZ
# [25] = test system: Pseudomonas aeruginosa; experiment: Antibacterial activity against Pseudomonas aeruginosa MTCC 424 at 1250 ug/ml after 48 hr by cup-plate method; conditions: MTCC 424, 48 h, read-out: DIZ
# [26] = test system: Pseudomonas fluorescens; experiment: Antibacterial activity against Pseudomonas fluorescens MTCC 2421 at 750 ug/ml after 48 hr by cup-plate method; conditions: MTCC 2421, 48 h, read-out: DIZ
# [27] = test system: Bacillus pumilus; experiment: Antibacterial activity against Bacillus pumilus MTCC 1456 after 24 to 48 hr by tube dilution method
# [28] = test system: Pseudomonas aeruginosa; experiment: Antibacterial activity against Pseudomonas aeruginosa MTCC 424 at 250 ug/ml after 48 hr by cup-plate method; conditions: MTCC 424, 48 h, read-out: DIZ
# [29] = test system: Escherichia coli; experiment: Antibacterial activity against Escherichia coli MTCC 1573 at 250 ug/ml after 48 hr by cup-plate method; conditions: MTCC 1573, 48 h, read-out: DIZ
smiles,measurement,setting,value
NC(=O)N1N=C(c2cccc3ccccc23)CC1c1ccc([N+](=O)[O-])cc1 (centres undefined),zone of inhibition at 500 µg/mL,[1],13 mm
same,zone of inhibition at 1000 µg/mL,[2],12 mm
same,zone of inhibition at 1250 µg/mL,[3],19 mm
same,zone of inhibition at 250 µg/mL,[4],9 mm
same,MIC,[5],50 µg/mL
same,zone of inhibition at 1250 µg/mL,[6],15 mm
same,zone of inhibition at 750 µg/mL,[7],9 mm
same,MIC,[8],200 µg/mL
same,zone of inhibition at 750 µg/mL,[9],11 mm
same,MIC,[10],50 µg/mL
same,MIC,[11],200 µg/mL
same,zone of inhibition at 500 µg/mL,[12],10 mm
same,zone of inhibition at 250 µg/mL,[13],11 mm
same,zone of inhibition at 500 µg/mL,[14],11 mm
same,zone of inhibition at 250 µg/mL,[15],9 mm
same,zone of inhibition at 750 µg/mL,[16],12 mm
same,zone of inhibition at 1000 µg/mL,[17],13 mm
same,zone of inhibition at 100 µg/mL,[18],8 mm
same,zone of inhibition at 500 µg/mL,[19],10 mm
same,zone of inhibition at 1250 µg/mL,[20],14 mm
same,zone of inhibition at 1000 µg/mL,[21],17 mm
same,MIC,[22],50 µg/mL
same,zone of inhibition at 500 µg/mL,[23],10 mm
same,zone of inhibition at 250 µg/mL,[24],9 mm
same,zone of inhibition at 1250 µg/mL,[25],15 mm
same,zone of inhibition at 750 µg/mL,[26],11 mm
same,MIC,[27],50 µg/mL
same,zone of inhibition at 250 µg/mL,[28],10 mm
same,zone of inhibition at 250 µg/mL,[29],10 mm
